Results from patent US20240382600A1, “BIFUNCTIONAL DEGRADERS COMPRISING A TEAD BINDER” (Novartis AG, priority 2021, published 2024).

Assays:
[1] = target: TEAD1-GFP in HEK293A cells (Homo sapiens (Human), UniProt P28347); experiment: TEAD1 protein abundance flow cytometry assay in HEK293A; type: cell-based; settings: HEK293A TEAD1-GFP-CHYSEL-mCherry sensor cells, 24 h, GFP signal by flow cytometry
Method: Degradation of TEAD1 was measured in HEK293A cells (Invitrogen R70507) expressing TEAD1-GFP and mCherry from a stably integrated bicistronic TEAD1-GFP-CHYSEL-mCherry construct. Reduction of the GFP signal measured by flow cytometry served as readout for TEAD1 degradation after degrader treatment.
Stable HEK293A sensor cells were maintained in complete growth medium (DMEM high Glucose+10% FCS+1% L-Glutamine+1% NEAA+1% NaPyr.+4 μg/mL blasticidin) with passaging performed twice per week. On Day 0, stable HEK293A sensor cells were seeded at 5,000 cells/well in a 96-well microtiter plate in 100 μL complete medium. On Day 1, cells were treated in duplicate with 10-point 1:3 dilution series of compound using the HP D300 Digital Dispenser (Tecan). DMSO concentrations were normalized across the plate to 0.1%. On Day 2, after 24 h of incubation at 37° C., treatment media was discarded, cells rinsed with 100 μL/well PBS and then detached using 40 μL trypsin/well for 5 min. Trypsin was neutralized with 100 μL/well PBS+20% FCS).
Flow cytometry was performed on the samples using the CytoFlex S (Beckman Coulter). Cell identification was then performed using forward (FSC) vs. side scatter (SSC) plots. Single cell discrimination was performed using SSC-Width (SSC-W) vs. SSC-Height (SSCH) plots. Median GFP values for 2,500 single cells were used to determine TEAD1 levels. Median GFP values from HEK293A were used as a background signal and thus defining 0% TEAD1 signal. Median GFP values from DMSO treated HEK293A TEAD1-GFP CHYSEL-mCherry were used to define 100%
TEAD1 signal for subsequent DC50 curves (concentration at 50% TAED1 degradation). GFP and RFP were read in the channels called FITC and PE, respectively. Concentration response curves plotting relative reduction of the GFP signal (measured by flow cytometry) versus 10 compound concentrations (starting concentration 10 μM, 3 fold dilution steps) of the compounds allowed generation of DC50 values.

[2] = tested on: YAP-dependent transcription in SF268-MCAT_Luc_dox-i-shYAPLevy (Clone 13) cells; experiment: YAP reporter gene activity assay (MCAT-Luc), SF268; type: cell-based; settings: Homo sapiens, SF-268; SF268 MCAT_Luc, 24 hrs
[3] = tested on: SF268-MCAT_Luc_dox-i-shYAPLevy (Clone 13) cells; experiment: Proliferation assay (resazurin/AlamarBlue), SF268; type: cell-based; settings: Homo sapiens, SF-268; SF268, 72 hours
Excerpt: (§1) NCI-H2052 mesothelioma cells (RRID: CVCL_1518) bearing Hippo-pathway inactivating mutations upstream of YAP (homozygous deletion of LATS2 and mutation of NF2) were obtained from ATCC (American Type Culture Collection), while SF268 glioma cells (RRID: CVCL_1689) overexpressing YAP due to genomic amplification were obtained from the NCI (National Cancer Institute). MKN-45 gastric adenocarcinoma cells (RRID: CVCL_0434) genomically deleted for YAP were obtained from the JCRB (Japanese Collection of Research Bioresources) Cell Bank.
(§2) Stock solutions of compounds were prepared at a concentration of 10 mM in DMSO and stored at 4° C. Where necessary to afford a full dose-response curve, the stock solutions were pre-diluted in DMSO to 1′000-fold the desired reduced start concentration. On the day after cell seeding, eleven 2-fold serial dilutions of each compound were dispensed directly into the cell assay plates using a HP 300D non-contact Digital Dispenser (TECAN). The final concentration of DMSO was normalized to 0.1% in all wells.
(§3) After incubation for 72 hours at 37° C., compound-mediated modulation of cell viability was quantified as follows. […] To enable differentiation of cytotoxic from cytostatic compound effects, the number of viable cells on the day of compound addition (day 0) was assessed in a separate cell plate and used to assess the extent of cell viability suppression as described in the following section.
(§4) For data analysis, the assay background value determined in wells containing medium, but no cells, was subtracted from all data points.
(§5) The extent of growth inhibition and potential cell kill was assessed by comparing the resorufin levels in compound-treated cells with those present at the time of compound addition. To this end, the following conditional concept was programmatically applied in HELIOS to calculate % growth (% G) for each compound-treated well: % G=(T−V0)/V0))*100 when T<V0, and % G=(T−V0)/(V−V0)))*100 when T≥V0, where V0 is the viability level at time of compound addition, while V and T represent vehicle-control and compound-treated viability levels, respectively, at the end of the compound incubation. 100%, 0% and −100% signify absence of growth inhibition, growth stasis, and complete cell kill, respectively. Compound concentrations leading to half-maximal growth inhibition (GI50) and residual cell viability at the highest tested compound concentration (Data(cmax), expressed in percent) were routinely calculated.

[4] = tested on: NCI-H2052 Tet-On shYAP_2371 pLenti6 MCAT_Luc cells; experiment: Proliferation assay (resazurin/AlamarBlue), NCI-H2052; type: cell-based; settings: Homo sapiens; NCI-H2052, 72 hours
Excerpt: as §1, §2, §3, §4, §5

[5] = tested on: MKN-45/Ubc-luc cells; experiment: Proliferation assay (resazurin/AlamarBlue), MKN-45; type: cell-based; settings: Homo sapiens; MKN-45, 72 hours
Excerpt: as §1
As a specificity control, MKN-45 cells were stably transduced with a Ubc-Luc reporter construct, in which constitutive expression of firefly luciferase is driven by the promoter of the ubiquitin C housekeeping gene.
as §2, §3, §4, §5

[6] = target: Avi-humanTEAD4^217-434 / Cy5 labeled humanYAP^60-100 (Homo sapiens (Human), UniProt Q15561); experiment: In-vitro biochemical TR-FRET assay (TEAD4/YAP); type: binding; settings: 1 h at room temperature
Method: N-terminus Cy5 labeled humanYAP^60-100 (20 nM) was then added to this preparation. Compounds were dissolved at 10 mM in 100% DMSO and serial dilutions were made in 100% DMSO. The diluted compound solutions were incubated in white 384-well plates (Greiner Bio-One) for 1 h at room temperature with the above described mix. The final DMSO concentration present in the assay was 1%. […] The IC50 values were estimated by fitting the data by nonlinear fit regression (GraphPad Prism).

[7] = tested on: MKN-45/Ubc-luc cells (unspecific inhibition of luciferase expression or activity); experiment: Reporter gene assay specificity control (Ubc-Luc), MKN-45; type: cell-based; settings: Homo sapiens; MKN-45/Ubc-luc specificity control, 24 hrs
Excerpt: as §1
As a specificity control, MKN-45 cells were stably transduced with a Ubc-Luc reporter construct, in which constitutive expression of firefly luciferase is driven by the promoter of the ubiquitin C housekeeping gene. The resulting cell line, MKN-45/Ubc-luc, was selected and maintained in growth medium (RPMI 1640 (Amimed Cat #1-41F01-I), 2 mM L-Glutamine (Amimed Cat #5-10K50-H), 10% fetal calf serum (Amimed Cat #2-01F30-I Lot K08815P), 1% MEM Non-essential amino acids (Amimed Cat #5-13K00-H), 1× Penicillin/Streptomycin (Amimed Cat #4-01F00-H)) containing 1 μg/ml blasticidin (Gibco Cat #A11139-03).
as §2
The ability of compounds to inhibit YAP-dependent transcription was assessed in NCI-H2052 Tet-On shYAP_2371 pLenti6 MCAT_Luc and SF268-MCAT_Luc, dox-i-shYAPLevy (Clone 13) cells, while specificity (lack of unspecific inhibition of luciferase expression or activity) was assessed in MKN-45/Ubc-luc cells. The individual cell lines were seeded at 2′500 cells/20 μl/well into white-wall, clear-bottom 384-well plates (Greiner, Cat #781098) and incubated over night at 37° C. prior to addition of serial compound dilutions as described above. Following incubation for 24 hrs at 37° C., compound-mediated modulation of reporter-gene activity was quantified 5 min after addition 20 μL […] BrightGlo (Promega Cat #E2620), by measuring luminescence intensity on a multi-mode plate-reader (TECAN) with an integration time of 100 ms.
as §4

[8] = tested on: YAP-dependent transcription in NCI-H2052 Tet-On shYAP_2371 pLenti6 MCAT_Luc cells; experiment: YAP reporter gene activity assay (MCAT-Luc), NCI-H2052; type: cell-based; settings: Homo sapiens, 24 hrs

Sequence of TEAD1-GFP in HEK293A cells (P28347 whole entry): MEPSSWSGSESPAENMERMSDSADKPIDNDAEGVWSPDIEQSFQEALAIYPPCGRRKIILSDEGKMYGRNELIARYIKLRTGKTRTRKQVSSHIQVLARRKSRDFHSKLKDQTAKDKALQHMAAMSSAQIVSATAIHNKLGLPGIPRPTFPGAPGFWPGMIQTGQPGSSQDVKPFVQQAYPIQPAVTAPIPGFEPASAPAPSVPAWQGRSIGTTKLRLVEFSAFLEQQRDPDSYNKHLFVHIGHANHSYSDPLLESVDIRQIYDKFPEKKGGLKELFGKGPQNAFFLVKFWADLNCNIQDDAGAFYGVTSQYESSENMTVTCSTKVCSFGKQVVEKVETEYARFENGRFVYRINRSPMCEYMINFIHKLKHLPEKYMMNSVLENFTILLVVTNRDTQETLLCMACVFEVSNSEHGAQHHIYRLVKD
Sequence of Avi-humanTEAD4^217-434 / Cy5 labeled humanYAP^60-100 (Q15561 217-434): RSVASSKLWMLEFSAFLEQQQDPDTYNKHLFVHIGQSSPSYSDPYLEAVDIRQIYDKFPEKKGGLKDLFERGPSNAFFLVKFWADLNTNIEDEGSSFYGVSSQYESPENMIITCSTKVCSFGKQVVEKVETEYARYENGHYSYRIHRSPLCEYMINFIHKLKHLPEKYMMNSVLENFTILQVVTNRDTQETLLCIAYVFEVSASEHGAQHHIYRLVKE

| SMILES | DC50 [1] | IC50 [2] | GI50 [3] | GI50 [4] | GI50 [5] | IC50 [6] | IC50 [7] | IC50 [8] |
| --- | --- | --- | --- | --- | --- | --- | --- | --- |
| COc1ccc(C(=O)N2CCC(CC3CCN(C(=O)[C@H]4CC[C@H](NC[C@]5(c6ccccc6)Oc6cc(F)c(Cl)c(-c7c(C(N)=O)ccc(OC)c7F)c6[C@@H]5C)CC4)CC3)CC2)cc1N1CCC(=O)NC1=O (atropisomer, axis not shown) [Example 1, 2-((2S,3S,4S)-5-chloro-2-((((1r,4S)-4-(4-((1-(3-(2,4-dioxotetrahydropyrimidin-1(2H)-yl)-4-methoxybenzoyl)piperidin-4-yl)methyl)piperidine-1-carbonyl)cyclohexyl)amino)methyl)-6-fluoro-3-methyl-2-phenyl-2,3-dihydrobenzofuran-4-yl)-3-fluoro-4-methoxybenzamide] | 0.6 nM | 0.3 nM | 14 nM | 15 nM | 11000 nM | 1.9 nM | > 20000 nM | 3.6 nM |
| COc1ccc(C(=O)N2CCC(OC3CCN(C(=O)[C@H]4CC[C@H](NC[C@]5(c6ccccc6)Oc6cc(F)c(Cl)c(-c7c(C(N)=O)ccc(OC)c7F)c6[C@@H]5C)CC4)CC3)CC2)cc1N1CCC(=O)NC1=O (atropisomer, axis not shown) [Example 2, 2-((2S,3S,4S)-5-chloro-2-((((1r,4S)-4-(4-((1-(3-(2,4-dioxotetrahydropyrimidin-1(2H)-yl)-4-methoxybenzoyl)piperidin-4-yl)oxy)piperidine-1-carbonyl)cyclohexyl)amino)methyl)-6-fluoro-3-methyl-2-phenyl-2,3-dihydrobenzofuran-4-yl)-3-fluoro-4-methoxybenzamide] | 2 nM | 0.9 nM | 41 nM | 48 nM | > 20000 nM | 1.4 nM | > 20000 nM | 13 nM |
| COc1ccc(C(=O)N2CCN(CC3CCN(CCNC(=O)[C@H]4CC[C@H](NC[C@]5(c6ccccc6)Oc6cc(F)c(Cl)c(-c7c(C(N)=O)ccc(OC)c7F)c6[C@@H]5C)CC4)CC3)CC2)cc1N1CCC(=O)NC1=O (atropisomer, axis not shown) [Example 3, 2-((2S,3S,4S)-5-chloro-2-((((1r,4S)-4-((2-(4-((4-(3-(2,4-dioxotetrahydropyrimidin-1(2H)-yl)-4-methoxybenzoyl)piperazin-1-yl)methyl)piperidin-1-yl)ethyl)carbamoyl)cyclohexyl)amino)methyl)-6-fluoro-3-methyl-2-phenyl-2,3-dihydrobenzofuran-4-yl)-3-fluoro-4-methoxybenzamide] | 6 nM | 1.6 nM | 54 nM | 320 nM | > 20000 nM | < 1 nM | > 20000 nM | 98 nM |
| COc1ccc(C(=O)N2CCC3(CCN(CCNC(=O)[C@H]4CC[C@H](NC[C@]5(c6ccccc6)Oc6cc(F)c(Cl)c(-c7c(C(N)=O)ccc(OC)c7F)c6[C@@H]5C)CC4)CC3)CC2)cc1N1CCC(=O)NC1=O (atropisomer, axis not shown) [Example 5, 2-((2S,3S,4S)-5-chloro-2-((((1r,4S)-4-((2-(9-(3-(2,4-dioxotetrahydropyrimidin-1(2H)-yl)-4-methoxybenzoyl)-3,9-diazaspiro[5.5]undecan-3-yl)ethyl)carbamoyl)cyclohexyl)amino)methyl)-6-fluoro-3-methyl-2-phenyl-2,3-dihydrobenzofuran-4-yl)-3-fluoro-4-methoxybenzamide] | 35 nM | 2.5 nM | 89 nM | 360 nM | > 20000 nM | < 1 nM | > 20000 nM | 160 nM |
| COc1ccc(C(=O)NCCCCCn2cc(-c3ccc4c(c3)CN(C3CCC(=O)NC3=O)C4=O)nn2)c(-c2c(Cl)c(F)cc3c2C[C@@](CN)(c2ccccc2)O3)c1F (stereo partly drawn) [Example 37, 2-((2S,4S)-2-(aminomethyl)-5-chloro-6-fluoro-2-phenyl-2,3-dihydrobenzofuran-4-yl)-N-(5-(4-(2-(2,6-dioxopiperidin-3-yl)-1-oxoisoindolin-5-yl)-1H-1,2,3-triazol-1-yl)pentyl)-3-fluoro-4-methoxybenzamide] |  | 420 nM | 14900 nM | 6050 nM | 12400 nM | 120 nM | 15900 nM | 3350 nM |
